Assay results: the supplement of paper PMC11061612

Key:
Assay in all cases: Bliss excess, mean over the matrix (fraction); higher = more synergy
A204 (Rhabdomyosarcoma) = test system: A204 (Rhabdomyosarcoma)
In short: (§1)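 Bliss excess equals the observed combination effect minus the expected value EA + EB − EA·EB, where EA and EB are the effects of each agent alone. Combination Emax is the second-highest inhibition within the matrix. Inhibition was scaled from CellTiter-Glo 2.0 luminescence, with 0 set by vehicle wells and 1 by blank wells, after 72 hours of two-drug dosing of cells plated in 1536-well plates.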

[1] = test system: LU-165 (Small Cell Lung Carcinoma)
In short: as §1

[2] = test system: NCI-H2087 (Lung Adenocarcinoma)
In short: as §1

[3] = test system: NCI-H2228 (Lung Adenocarcinoma)
In short: as §1

[4] = test system: 22RV1 (Prostate Carcinoma)
In short: as §1

[5] = test system: CESS (Acute Myeloid Leukemia)
In short: as §1

[6] = test system: CGTH-W-1 (Thyroid Gland Carcinoma)
In short: as §1

[7] = test system: MDA-MB-436 (Breast Carcinoma)
In short: as §1

[8] = test system: HT55 (Colorectal Carcinoma)
In short: as §1

[9] = test system: SW620 (Colorectal Carcinoma)
In short: as §1

[10] = test system: GCT (Other Solid Carcinomas)
In short: as §1

769-P (Kidney Carcinoma) = test system: 769-P (Kidney Carcinoma)
In short: as §1

[11] = test system: JVM-2 (B-Cell Non-Hodgkin's Lymphoma)
In short: as §1

[12] = test system: A2780 (Ovarian Carcinoma)
In short: as §1

[13] = test system: huH-1 (Hepatocellular Carcinoma)
In short: as §1

AU565 (Breast Carcinoma) = test system: AU565 (Breast Carcinoma)
In short: as §1

[14] = test system: NCI-H716 (Colorectal Carcinoma)
In short: as §1

A101D (Melanoma) = test system: A101D (Melanoma)
In short: as §1

[15] = test system: A253 (Head and Neck Carcinoma)
In short: as §1

[16] = test system: UACC-812 (Breast Carcinoma)
In short: as §1

SMILES | Bliss excess (A204 (Rhabdomyosarcoma)) | Bliss excess [1] | Bliss excess [2] | Bliss excess [3] | Bliss excess [4] | Bliss excess [5] | Bliss excess [6] | Bliss excess [7] | Bliss excess [8] | Bliss excess [9] | Bliss excess [10] | Bliss excess (769-P (Kidney Carcinoma)) | Bliss excess [11] | Bliss excess [12] | Bliss excess [13] | Bliss excess (AU565 (Breast Carcinoma)) | Bliss excess [14] | Bliss excess (A101D (Melanoma)) | Bliss excess [15] | Bliss excess [16]
CS(=O)(=O)CCNCc1ccc(-c2ccc3ncnc(Nc4ccc(OCc5cccc(F)c5)c(Cl)c4)c3c2)o1 [Lapatinib] + C[C@@H](Oc1cc(-c2cnn(C3CCNCC3)c2)cnc1N)c1c(Cl)ccc(F)c1Cl [Crizotinib] (first compound max 10 µM, 7x7, partner max 10 µM) | -0.0279 | -0.0858 | -0.0499 | 0.0163 | -0.108 | -0.0826 | -0.0294 | -0.0237 | -0.0412 | -0.0736 | -0.0251 | -0.0331 | -0.0131 | -0.0277 | -0.0577 | -0.0287 | -0.0217 | -0.0587 | -0.0221 | –
NC1(C(=O)N[C@@H](CCO)c2ccc(Cl)cc2)CCN(c2ncnc3[nH]ccc23)CC1 [Capivasertib] + COc1nnc2ccc(N3CCC(c4ccc(OCCN5CCN(C)C(=O)[C@H]5C)cc4)CC3)nn12 [AZD5153] (first compound max 10 µM, 7x7, partner max 1 µM) | 0.006 | -0.0351 | 0.0179 | 0.036 | 0.0032 | 0.0506 | 0.0068 | -0.0555 | -0.0408 | 0.0026 | 0.0049 | 0.055 | -0.0764 | -0.0148 | 0.0064 | 0.0693 | -0.0181 | 0.0062 | 0.125 | –
Cc1c2c(nn1C)CSCc1cc(n(C)n1)CSc1cc(c3ccccc3c1)OCCCc1c(C(=O)O)n(C)c3c-2c(Cl)ccc13 [AZD5991] + Cn1cnc2c(F)c(Nc3ccc(Br)cc3Cl)c(C(=O)NOCCO)cc21 [Selumetinib] (first compound max 1 µM, 7x7, partner max 3 µM) | -0.0355 | -0.0335 | 0.0282 | 0.0038 | 0.0253 | – | -0.0152 | -0.0127 | 0.043 | 0.0005 | 0.0058 | -0.035 | 0.0529 | -0.0361 | -0.0382 | 0.0145 | 0.0278 | 0.0482 | 0.0716 | 0.0137
NC1(C(=O)N[C@@H](CCO)c2ccc(Cl)cc2)CCN(c2ncnc3[nH]ccc23)CC1 [Capivasertib] + C[C@@H]1COCCN1C2=NC(=NC(=C2)C3(CC3)[S@](=N)(=O)C)C4=C5C=CNC5=NC=C4 [AZD6738] (first compound max 10 µM, 7x7, partner max 10 µM) | -0.0201 | -0.01 | -0.0071 | -0.0617 | -0.0527 | 0.0044 | -0.0508 | -0.0473 | -0.0531 | -0.0475 | -0.0719 | -0.0448 | -0.0607 | -0.0336 | -0.0533 | -0.0126 | -0.0317 | -0.107 | -0.0163 | –
Cc1c2c(nn1C)CSCc1cc(n(C)n1)CSc1cc(c3ccccc3c1)OCCCc1c(C(=O)O)n(C)c3c-2c(Cl)ccc13 [AZD5991] + C=CCn1c(=O)c2cnc(Nc3ccc(N4CCN(C)CC4)cc3)nc2n1-c1cccc(C(C)(C)O)n1 [AZD1775] (first compound max 1 µM, partner max 1 µM) | 0.0348 | 0.0112 | -0.0067 | 0.0114 | -0.003 | -0.0098 | 0.005 | 0.0087 | 0.0215 | -0.0272 | 0.0301 | -0.071 | -0.0165 | -0.0313 | -0.0405 | 0.0127 | – | 0.0106 | 0.0398 | -0.0343
NC1(C(=O)N[C@@H](CCO)c2ccc(Cl)cc2)CCN(c2ncnc3[nH]ccc23)CC1 [Capivasertib] + CC(=O)c1c(C)c2cnc(Nc3ccc(N4CCNCC4)cn3)nc2n(C2CCCC2)c1=O [Palbociclib] (first compound max 10 µM, 7x7, partner max 10 µM) | -0.0496 | -0.0886 | -0.03 | -0.0216 | 0.0306 | -0.0306 | 0.0111 | -0.0267 | -0.0186 | -0.019 | -0.0569 | -0.0257 | -0.036 | -0.0266 | -0.0462 | 0.0521 | -0.0018 | 0.0157 | -0.0709 | –
CC(=O)c1c(C)c2cnc(Nc3ccc(N4CCNCC4)cn3)nc2n(C2CCCC2)c1=O [Palbociclib] + Cc1c2c(nn1C)CSCc1cc(n(C)n1)CSc1cc(c3ccccc3c1)OCCCc1c(C(=O)O)n(C)c3c-2c(Cl)ccc13 [AZD5991] (first compound max 10 µM, 7x7, partner max 1 µM) | -0.026 | -0.0347 | -0.0561 | -0.0537 | -0.0781 | -0.0341 | -0.0037 | -0.0243 | 0.0046 | -0.0292 | -0.049 | -0.004 | -0.0206 | -0.0344 | -0.0422 | -0.0211 | -0.0343 | -0.0091 | -0.134 | –
NC1(C(=O)N[C@@H](CCO)c2ccc(Cl)cc2)CCN(c2ncnc3[nH]ccc23)CC1 [Capivasertib] + CC(C)n1c(=O)n(C)c2cnc3cc(F)c(-c4ccc(OCCCN5CCCCC5)nc4)cc3c21 [AZD1390] (first compound max 10 µM, 7x7, partner max 0.3 µM) | -0.0575 | -0.0456 | -0.0378 | -0.0728 | -0.0886 | -0.0835 | -0.0273 | -0.0625 | -0.0432 | -0.0529 | -0.0509 | -0.0261 | -0.0662 | -0.0885 | -0.0802 | -0.025 | -0.0701 | -0.118 | -0.0597 | –
